The target in one test is T1, NUAK1 (Homo sapiens, UniProt O60285).
T1 construct: Reaction biology Corp (USA), service
T1 sequence (O60285 1-661): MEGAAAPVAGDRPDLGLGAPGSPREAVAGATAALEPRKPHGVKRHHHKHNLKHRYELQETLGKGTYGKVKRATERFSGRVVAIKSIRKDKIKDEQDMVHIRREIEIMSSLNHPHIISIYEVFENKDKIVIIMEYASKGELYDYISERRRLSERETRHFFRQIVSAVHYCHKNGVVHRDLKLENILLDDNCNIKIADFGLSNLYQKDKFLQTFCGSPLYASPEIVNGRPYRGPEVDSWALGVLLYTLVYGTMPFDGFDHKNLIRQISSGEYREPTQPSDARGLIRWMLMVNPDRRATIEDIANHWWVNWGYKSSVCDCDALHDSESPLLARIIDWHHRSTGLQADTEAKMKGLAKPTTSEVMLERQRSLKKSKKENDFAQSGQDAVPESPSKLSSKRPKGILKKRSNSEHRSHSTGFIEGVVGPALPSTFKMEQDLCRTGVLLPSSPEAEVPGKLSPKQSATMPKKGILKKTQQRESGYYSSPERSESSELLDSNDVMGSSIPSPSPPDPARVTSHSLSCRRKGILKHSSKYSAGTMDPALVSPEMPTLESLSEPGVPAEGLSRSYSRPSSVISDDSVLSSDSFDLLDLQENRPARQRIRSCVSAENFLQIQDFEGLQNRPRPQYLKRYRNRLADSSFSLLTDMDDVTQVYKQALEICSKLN
Nature of the test: In vitro IC50 on recombinant kinase. Format: biochemical. How it is done:
The efficiency of the 3-amino-ethoxy compounds to inhibit Nuak1 was determined in vitro.
The profiling was performed at the MRC (Dundee University), in duplicate, on a set of 121 kinases. The panel is representative of the major different classes of kinases. Compounds were used at the concentration of 1 μM. In vitro, IC50 were determined on recombinant kinases by Reaction biology Corp (USA).

A further test relates to H358 spheroids. Nature of the test: Multicellular tumour spheroid (MTS) growth. Format: cell-based. The protocol:
H358 cells were cultured in 3-Dimensions. At day 1, the compound was added at the concentration of 0.6 μM. The spheroid growth was measured each day and expressed as a growth ratio (Vd−Vo/Vo); d for day and o for the starting day. The evolution of the volume of the spheroids is expressed in function of the time (in days). Spheroids grown in the presence of C1 are indicated by triangles whereas rectangles indicate spheroids treated by C14; control spheroids are visualized by diamonds.
In order to get some insight in C14 effects towards organized cells, the inventors have followed H358 spheroid expansion (FIG. 9). Organized 3-dimension spheroids were treated by either C14 (0.5 μM) or C1 (0.5 μM) or DMSO (control). […] C14 was thus found efficient to prevent cell growth even when cells mimicked tissue organization.
The inventors applied the hanging-drop method to produce H358 spheroids of similar diameters. 1400 cells were suspended on the lid of an agar coated 24-petri dishes containing culture medium. 48 h later, the spheroids were transferred to the culture medium. Spheroid volumes were measured before (Day 0) and during the drug treatment (Day N). H358 spheroids were treated by compounds at the concentration of 0.6 μM. Control H358 spheroids were grown under the same conditions without drug treatment. The size of each spheroid was determined by measuring 2 diameters (d1 and d2) using an inverted microscope. The volume was calculated according to the formula: V=4/3π^3 where r=½√d1xd2. Spheroid growth was calculated by measuring the variations in volume and compared to the initial volume V0. The growth ratio was defined as (Vd−Vo)/Vo. Data are the mean of at least three determinations on different spheroids.

pIC50: −log10 of the molar value.

The values that follow come from patent publication US20140073637A1, “AMINO-SUBSTITUTED-ALKYLOXY-BENZO[E]PYRIDO[4,3-B]INDOLE DERIVATIVES AS NEW POTENT KINASE INHIBITORS” (INSTITUT CURIE, priority 2011, published 2014).

The term pIC50 denotes the negative decadic logarithm of the IC50, by convention in mol/L.

As to `Cc1c[nH]c(=O)c2c1[nH]c1ccc3cc(OCCN(C)C)ccc3c12` [Compound C14, 3-(2-N,N-Dimethylaminoethoxy)-8-methyl-7H,10H-benzo[e]pyrido(4,3-b)indol-11-one], the pIC50 at NUAK1 was 8.85. Moreover, in the test on H358 spheroids (0.5 μM, 0.6 μM), the “duration of effect on spheroid growth” value was “at least 5 days” and the “effect on 3D-H358 cell (spheroid) growth (in words)” value is “affected significantly”. The “spheroid size at day 10 (in words)” value with H358 spheroids (day 10, compared with C1-treated spheroids) is on record as “smaller than their counterparts treated by C1”.
